The values below are quoted from earlier work in publication PMC10010621, “ATP binding by an F1Fo ATP synthase ε subunit is pH dependent, suggesting a diversity of ε subunit functional regulation in bacteria” (Frontiers in Molecular Biosciences, 2023).

The target of data set [1] is Bacillus PS3 ε subunit. Conditions: isolated ε subunit; ref Kato et al., 2007; read-out: Kd (ATP binding affinity).
In data set [2] the target is εR103A/εR115A double-mutant ε subunit of Bacillus PS3. Set-up: method as in Kato-Yamada, 2016. Conditions: ref Kato-Yamada, 2016, read-out: ATP binding affinity.
For data set [3], the target named is Bacillus subtilis ε subunit. Set-up: method as in Kato-Yamada, 2005; Krah et al., 2021. The settings on record: isolated ε subunit; ref Kato-Yamada, 2005; Krah et al., 2021; read-out: Kd (ATP binding affinity).
Data set [4] relates to B. subtilis ε subunit εE102A. Set-up: method as in Krah et al., 2021. The settings on record: εE102A versus wild-type; ref Krah et al., 2021.
Data set [5] deals with B. subtilis ε subunit εE102R. Set-up: method as in Krah et al., 2021. Conditions: εE102R versus wild-type; ref Krah et al., 2021.
Data set [6] concerns Escherichia coli ε subunit. The arrangement: method as in Yagi et al., 2007. The settings on record: isolated ε subunit; ref Yagi et al., 2007; read-out: Kd (ATP binding affinity).
Data set [7] concerns ε subunit of M. tuberculosis. Set-up: method as in Biukovic et al., 2013. Conditions: at the conditions measured; ref Biukovic et al., 2013.
Data set [8] deals with C. thermarum ε subunit NTH mutant (εD89A, εR92A). The arrangement: method as in Ferguson et al., 2016. Conditions: F1 domain, ref Ferguson et al., 2016.
Details of data set [9]: method as in Tanokura et al., 1976. The settings on record: solution phase; ref Tanokura et al., 1976.

With `Nc1ncnc2c1ncn2[C@@H]1O[C@H](COP(=O)(O)OP(=O)(O)OP(=O)(O)O)[C@@H](O)[C@H]1O` [ATP], the Kd in data set [1] was 4.3 µM; in data set [2], 0.052 µM; in data set [3], 2100 µM; in data set [6], 22000 µM. Moreover, the entries for the “increase in ATP binding affinity” value in data set [4] and in data set [5] were ~10 fold and ~54 fold, respectively. The values for the ATP binding result in data set [7] and in [8] were “did not bind to ATP” and “lack of ability to bind ATP”, respectively.
Consider `N[C@@H](Cc1c[nH]cn1)C(=O)O` [histidine], for which the “pKa of the imidazole group” value in [9] is recorded as 6.0–6.5.
